# In patent US5795857A, “Mimetic insect pyrokinin analogs for insect control” (The United States of America as represented by the …, priority 1996, dated 1998):
# “Also recorded” adds a separate entry of the source.
# Columns and labels:
# [1] = tested on: isolated cockroach (Leucophaea maderae) hindgut; experiment: Cockroach myotropic bioassay (isolated hindgut); assay type: cell-based
# Description: Leucophaea maderae cockroaches were taken from stock colonies maintained at 27° C. and fed dry dog food ad lib. Cockroach hindguts, free of central nervous system (CNS) tissue, were dissected, immersed in saline, and prepared for recording of myogenic activity as previously described (Holman et al., 1991, ibid). Threshold concentrations were determined for each analogue by adding a known quantity of peptide (dissolved in 0.5 ml bioassay saline) to the bioassay chamber containing the hindgut and observing the response on a Gould 2200S oscillograph recorder. The quantity of the peptide analogues was calculated from the values obtained for Phe and/or Leu in the amino acid analysis. The threshold concentration was defined as the minimum concentration of peptide in the chamber required to evoke an observable change in the frequency (50%) or amplitude of contractions (5%) within 1 min and sustained for 3 min. Threshold concentrations were obtained from five cockroach hindguts on 5 consecutive days for each peptide. Quantitative data for dose-response plots were obtained as previously described (Holman et al., 1991, ibid).
# [2] = tested on: virgin females of Heliothis virescens; experiment: Pheromonotropic assay (topical application); assay type: in vivo; settings: for dose approaching 100% maximal response, topical application: 15 minutes following topical application
# Description: The amphiphilic carboranyl analog Cbe--Thr--Pro--Arg--Leu--NH2 was dissolved in water and solutions at concentrations of 5, 10, 25, 60, and 200 pmol/μl were prepared. The cuticular scales along the lateral side of the abdomen were removed with a 1 ml plastic pipet tip attached to house vacuum with a rubber hose. A low vacuum was applied to the apparatus and the pipet tip was gently passed over the cuticle until the scales were drawn by suction. After the scales were removed, 1 μl of peptide solution was applied to the surface of the cuticle and smoothed evenly over the prepared surface. […]
# Pupae of Heliothis virescens were obtained from a laboratory colony maintained at the Insect Attractants Behavior and Basic Biology Research Laboratory, USDA-ARS, Gainesville, Fla. The pupae were separated by sex and the females were held in 4-1 cages. Cages were inspected daily for newly eclosed adults which were transferred to new cages and provided with cotton wicks soaked with a 5% sucrose solution. The insects were held at 25°[…] C. and 65%±3% relative humidity with a 12:12 (L:D) photoperiod. Virgin females were used for bioassays 2 and 3 days after eclosion during the 7th-8th hour of the photophase when little or no pheromone is present in the gland (Teal et al., 1993, Can. Entomol., 153:355-366). The cuticular scales were removed from the lateral side of the abdomen using a plastic pipet tip attached to house vacuum using a rubber hose. A low vacuum was applied and the pipet tip was passed gently over the cuticle until the scales were drawn off by suction. Insects were returned to the incubator for 24 h after the scales were removed for most experiments. However, insects were not given a recovery period in studies in which peptides were applied in DMSO (see below).
# In initial studies we used dimethyl sulfoxide (DMSO) as a carrier to deliver Hez--PBAN or [6--Pha--Ala^0 ]Lom--MT--II for topical applications. […] We also assessed different carrier solvents for their ability to deliver these two peptides. Peptides were dissolved at a concentration of 500 pmol/μl in: DMSO, water, or 80% acetonitrile:20% water. Solutions were applied to the descaled abdomen in 1 μl of solvent as above. The insects were allowed to incubate for 1 h prior to excision and extraction of the pheromone gland. Extracts were analyzed for the amount of pheromone as above.
# The use of water as a carrier for [6--Pha--Ala^0 ]Lom--MT--II was also assessed in dose response and temporal activity studies. For dose response studies [6--Pha--Ala^0 ]Lom--MT--II was dissolved in water at concentrations of 5, 10, 25, 50, 75, 100, 250, 500, 750 and 1000 pmol/μl. Insects were incubated for 60 min after application of 1 μl of solution to the descaled abdomen. In temporal activity studies a 100 pmol/μl dose was selected. For these experiments insects were incubated for periods of 15, 30, 60, 120, or 180 min after application of 1 μl of solution to the descaled abdomen. The ability of the parent peptide, Lom--MT--II, to stimulate pheromone production when applied topically in water was assessed by applying doses of 50, 100, 250 and 500 pmol to the abdomen. Control treatments for this experiment included insects treated with only water and females treated by topical application of 100 pmol of [6--Pha--Ala^0 ]Lom--MT--II. After incubation the sex pheromone glands were excised, extracted and analyzed for the amount of pheromone.
# fleshfly larvae = experiment: Acceleration of pupariation after injection into fleshfly larvae; assay type: in vivo, Sarcophaga bullata; settings: injected into fleshfly larvae
# [3] = isolated hindgut, FIG. 2, listed as carboranyl pseudotetrapeptide
substance,measurement,setting,value
Cbe--Thr--Pro--Arg--Leu--NH2,potency relative to the 8-mer LPK,[1]; hindgut threshold concentration,10 X
same,reversibility of myostimulatory response by saline rinse,"[1]; isolated hindgut, FIG. 2, listed as carboranyl analog",could not be reversed even following repeated saline rinses; also recorded: cannot be reversed even following repeated saline rinses
same,period over which myostimulatory activity subsides after rinse,[1]; [3],about 20 minutes
same,reversibility of myostimulatory response by saline rinse,[1]; [3],cannot be reversed by one or more saline rinses
same,"Threshold Concentration, myostimulation of the isolated cockroach hindgut",[1]; minimum concentration evoking observable change in frequency (50%) or amplitude (5%) of contractions,70 pM
same,"ED50 (EC50), pheromone production after topical application","[2]; 1 μl aqueous solution on lateral abdominal surface, FIG. 4",25 pmoles/female
same,"ED50, pheromone production via topical application","[2]; H. virescens, 1 μl aqueous solution",25 pmol
same,time after topical application at which pheromone production is elicited,[2]; aqueous solution,about 15 minutes
same,"dose approaching 100% maximal response, topical application","[2]; aqueous solution, listed as carboranyl analog",60 pmoles/female
same,"dose approaching 100% maximal response, topical application","[2]; aqueous solution, listed as carboranyl peptide",about 60 pmoles/female
same,Maximal Response via topical application (dose),[2]; relative to 5 pmoles PBAN via injection,60 pmol
same,"concentration giving maximal pheromone stimulation, topical application",[2]; topically applied,60 picomoles/insect
same,concentration accelerating pupariation,fleshfly larvae,≤ 0.25 picomoles/insect
